Here are results for two compounds from article PMC5500991, “Substituted arylsulphonamides as inhibitors of perforin-mediated lysis” (European Journal of Medicinal Chemistry, 2017).

Data set [1] deals with T1, perforin delivered by KHYG1 NK cells (Homo sapiens, UniProt P14222).
T1 construct: The use of whole NK cells to deliver perforin provides a more realistic model of conditions in vivo; endogenous in cells; host or cells: KHYG1 human NK cells (effector); K562 leukemia target cells
T1 sequence (P14222 22-555): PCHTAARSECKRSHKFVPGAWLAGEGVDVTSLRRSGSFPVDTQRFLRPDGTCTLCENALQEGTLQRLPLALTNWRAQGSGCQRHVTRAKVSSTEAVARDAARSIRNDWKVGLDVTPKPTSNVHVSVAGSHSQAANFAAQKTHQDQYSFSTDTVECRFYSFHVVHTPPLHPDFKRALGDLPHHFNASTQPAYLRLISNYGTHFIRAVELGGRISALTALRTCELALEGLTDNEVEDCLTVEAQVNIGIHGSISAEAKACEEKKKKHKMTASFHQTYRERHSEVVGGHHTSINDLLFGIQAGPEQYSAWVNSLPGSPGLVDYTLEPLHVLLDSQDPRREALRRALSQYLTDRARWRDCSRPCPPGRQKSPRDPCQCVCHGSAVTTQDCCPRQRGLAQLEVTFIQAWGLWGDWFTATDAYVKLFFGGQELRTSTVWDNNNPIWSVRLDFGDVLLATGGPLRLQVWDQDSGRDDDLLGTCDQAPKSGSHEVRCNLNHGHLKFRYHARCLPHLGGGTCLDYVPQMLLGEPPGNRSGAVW
Description: KHYG1 inhibitory assay: lysis of 51Cr-labelled K562 target cells by KHYG1 NK cells. Format: cell-based. The settings on record: 51Cr-labelled K562 target cells co-incubated with KHYG1 human NK cells, vs untreated control; for inhibition at 10 µM: n = 4. On the procedure:
The inhibitory function is then determined by identifying the number of untreated or inhibitor treated effector cells required to kill the same number of targets.

Data set [2] is described as follows: Toxicity to KHYG1 NK cells (Trypan blue exclusion). Type of data set: cell-based, human. The settings on record: human, viability of KHYG1 NK cells after 24 h, n = 3. The method, then:
The toxicity assay was carried out in exactly the same manner as the killing assay above, but instead of adding the labelled K562 target cells, 100 μL of RPMI 0.1% BSA was added. Cells were incubated for 4 h at 37 °C and then washed ×3 in RPMI + 0.1% BSA. […] Trypan blue was added to each well. Viable (clear) cells and total (clear + blue) cells were counted, and the percentage of viable cells was calculated compared to DMSO treated cell control (% viability).

The next data set has as its target T2, recombinant perforin (Mus musculus, UniProt P10820).
T2 sequence (P10820 21-554): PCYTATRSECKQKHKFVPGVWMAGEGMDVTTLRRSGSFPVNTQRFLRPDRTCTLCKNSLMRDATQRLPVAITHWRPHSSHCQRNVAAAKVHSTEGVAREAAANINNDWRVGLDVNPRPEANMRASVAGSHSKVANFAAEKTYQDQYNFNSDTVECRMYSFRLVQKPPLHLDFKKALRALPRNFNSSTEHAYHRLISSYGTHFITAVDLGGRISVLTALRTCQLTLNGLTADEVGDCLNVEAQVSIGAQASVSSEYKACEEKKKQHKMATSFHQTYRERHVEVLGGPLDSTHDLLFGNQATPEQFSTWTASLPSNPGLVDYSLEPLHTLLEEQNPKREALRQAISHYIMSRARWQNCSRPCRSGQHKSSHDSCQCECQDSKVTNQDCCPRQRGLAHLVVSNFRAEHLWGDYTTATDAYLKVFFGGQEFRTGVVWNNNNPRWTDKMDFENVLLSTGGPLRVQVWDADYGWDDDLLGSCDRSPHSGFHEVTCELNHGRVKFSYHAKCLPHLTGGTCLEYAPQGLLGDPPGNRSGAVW
Briefly: Inhibition of perforin-mediated lysis of Jurkat cells (51Cr release). The settings on record: recombinant perforin pre-incubated with compound 30 min; 51Cr-labelled Jurkat cells, 0.1% BSA, 4 h. Type of data set: cell-based. The text has this: The supernatant was collected and assessed for its radioactive content on a gamma counter (Wallac Wizard 1470 automatic gamma counter).

Each structure is given as a SMILES string.

The inhibition is the drop in the measured response relative to a control, in per cent. As usually defined, the viability is a read-out of living cells in per cent, often relative to untreated cells. The term melting point denotes the temperature of the solid-liquid transition. In turn, `Cc1ccc(NS(=O)(=O)c2ccc(F)cc2F)cc1-c1ccc(-c2ccc3c(c2)CN(C)C3=O)s1` [Compound 13, 2,4-Difluoro-N-(4-methyl-3-(5-(2-methyl-1-oxoisoindolin-5-yl)thiophen-2-yl)phenyl)benzenesulfonamide] had a melting point of 268 to 271 °C. Moreover, the inhibition at 10 µM in data set [1] worked out at 50%. Further, in data set [1] (n = 4, 10 µM), the “KHYG1 Inhibition (% at 10 μM)” value came to 50.3 ± 8.5%. The compound further displayed a viability at 24 h, 10 µM in data set [2] of 91.7 ± 10%. Further, at recombinant perforin, the “Inhibition of Jurkat Cell Lysis IC50” value was “complete loss of potency”.
In turn, `CN1Cc2cc(-c3ccc(-c4cncc(NS(=O)(=O)c5cccc(C#N)c5)c4)s3)ccc2C1=O` [Compound 49, 3-Cyano-N-(5-(5-(2-methyl-1-oxoisoindolin-5-yl)thiophen-2-yl)pyridin-3-yl)benzenesulfonamide] showed a melting point of 282 to 285 °C. Also, in data set [1], the inhibition at 10 µM is 83.7 ± 3.2%. In data set [2], the viability at 24 h, 10 µM was determined as 94.4 ± 7.1%. Moreover, the “Inhibition of Jurkat Cell Lysis IC50” value at recombinant perforin is recorded as “poor activity”.
